Measured values as given in publication PMC7321161, “The Intriguing Effects of Substituents in the N-Phenethyl Moiety of Norhydromorphone: A Bifunctional Opioid from a Set of “Tail Wags Dog” Experiments” (Molecules, 2020).
Where “and” joins values, the source holds several entries; their conditions need not be identical. Equal entries are not always repeated.

Experiments:
[1] = biological target: T1, human δ-receptor (OPRMD1) (Homo sapiens, UniProt P41143); assay: cell-based; format: cell-based; conditions: for Emax: CHO-K1, read-out: DOR cAMP % Efficacy; for EC50: DOR cAMP Agonist Potency ± SEM
T1 construct: host or cells: HitHunter CHO-K1 cells

[2] = biological target: T2, human κ-opioid receptor (OPRK1) (Homo sapiens, UniProt P41145); assay: cell-based; conditions: for EC50: KOR cAMP Agonist Potency ± SEM; for Emax: CHO-K1, read-out: KOR cAMP % Efficacy
T2 construct: host or cells: HitHunter CHO-K1 cells

[3] = biological target: T3, κ-opioid receptor (KOR) (Rattus norvegicus, UniProt P34975); assay: Opioid receptor binding, κ sites ([3H]U69,593), rat brain homogenate; conditions: radioligand displacement at 100 nM
T3 construct: Frozen whole rat brains excluding cerebellum were thawed on ice; from tissue; host or cells: whole rat brain excluding cerebellum, membrane homogenate

[4] = biological target: T4, human μ-opioid receptor (OPRM1) (Homo sapiens, UniProt P35372); assay: cell-based; conditions: for EC50: MOR cAMP Agonist Potency ± SEM; for Emax: OPRM1, read-out: MOR cAMP % Efficacy
T4 construct: host or cells: HitHunter CHO-K1 cells

[5] = biological target: T5, μ-opioid receptor (MOR) (Rattus norvegicus, UniProt P33535); assay: Opioid receptor binding, μ sites ([3H]DAMGO), rat brain homogenate
T5 construct: Frozen whole rat brains excluding cerebellum were thawed on ice; from tissue; host or cells: whole rat brain excluding cerebellum, membrane homogenate

[6] = biological target: T6, human μ-opioid receptor β-arrestin-2 (Homo sapiens, UniProt P35372); assay: cell-based; conditions: for Emax: read-out: MOR Mediated β-arrestin Recruitment (% Control, Emax DAMGO)
T6 construct: enzyme fragment for EFC (β-galactosidase ProLink fragment, by own knowledge of the PathHunter system); host or cells: PathHunter CHO cells

[7] = biological target: T7, δ-opioid receptor (DOR) (Rattus norvegicus, UniProt P33533); assay: Opioid receptor binding, δ sites ([3H]DADLE), rat brain homogenate
T7 construct: Frozen whole rat brains excluding cerebellum were thawed on ice; from tissue; host or cells: whole rat brain excluding cerebellum, membrane homogenate
T7 sequence (P33533 whole entry): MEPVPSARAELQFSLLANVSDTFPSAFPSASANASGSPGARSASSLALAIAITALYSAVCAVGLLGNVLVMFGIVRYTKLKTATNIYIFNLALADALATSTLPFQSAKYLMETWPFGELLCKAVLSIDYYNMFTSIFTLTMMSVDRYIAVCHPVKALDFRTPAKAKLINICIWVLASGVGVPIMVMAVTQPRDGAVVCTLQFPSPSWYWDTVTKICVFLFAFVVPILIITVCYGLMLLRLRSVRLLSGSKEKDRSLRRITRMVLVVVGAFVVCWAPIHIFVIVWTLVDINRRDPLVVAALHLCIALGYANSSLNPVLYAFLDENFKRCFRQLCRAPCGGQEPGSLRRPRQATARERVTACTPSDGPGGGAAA

T2 sequence (P41145 whole entry): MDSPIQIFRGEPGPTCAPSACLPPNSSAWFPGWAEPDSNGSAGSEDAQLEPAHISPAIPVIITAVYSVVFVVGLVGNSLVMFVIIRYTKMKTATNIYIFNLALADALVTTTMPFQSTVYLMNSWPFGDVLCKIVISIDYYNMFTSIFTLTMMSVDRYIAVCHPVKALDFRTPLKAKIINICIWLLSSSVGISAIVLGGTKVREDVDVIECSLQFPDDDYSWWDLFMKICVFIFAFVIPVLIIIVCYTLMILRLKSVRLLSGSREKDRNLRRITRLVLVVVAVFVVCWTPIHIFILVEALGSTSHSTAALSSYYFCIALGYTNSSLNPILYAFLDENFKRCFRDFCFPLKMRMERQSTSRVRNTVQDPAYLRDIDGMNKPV
T4 sequence (P35372 whole entry): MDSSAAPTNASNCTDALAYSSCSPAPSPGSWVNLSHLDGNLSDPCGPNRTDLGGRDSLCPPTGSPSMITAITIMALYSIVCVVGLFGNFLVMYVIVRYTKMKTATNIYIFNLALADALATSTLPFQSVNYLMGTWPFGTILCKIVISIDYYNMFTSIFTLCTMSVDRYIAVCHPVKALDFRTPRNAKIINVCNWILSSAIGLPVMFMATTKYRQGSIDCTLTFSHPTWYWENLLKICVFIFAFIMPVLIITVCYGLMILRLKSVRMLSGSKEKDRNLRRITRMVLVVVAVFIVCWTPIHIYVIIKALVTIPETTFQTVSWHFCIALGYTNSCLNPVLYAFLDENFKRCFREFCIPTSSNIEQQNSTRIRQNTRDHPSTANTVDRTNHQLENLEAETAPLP
T6 sequence (P35372 whole entry, the tested form may be a part): as the sequence (P35372 whole entry) above
T1 sequence (P41143 whole entry): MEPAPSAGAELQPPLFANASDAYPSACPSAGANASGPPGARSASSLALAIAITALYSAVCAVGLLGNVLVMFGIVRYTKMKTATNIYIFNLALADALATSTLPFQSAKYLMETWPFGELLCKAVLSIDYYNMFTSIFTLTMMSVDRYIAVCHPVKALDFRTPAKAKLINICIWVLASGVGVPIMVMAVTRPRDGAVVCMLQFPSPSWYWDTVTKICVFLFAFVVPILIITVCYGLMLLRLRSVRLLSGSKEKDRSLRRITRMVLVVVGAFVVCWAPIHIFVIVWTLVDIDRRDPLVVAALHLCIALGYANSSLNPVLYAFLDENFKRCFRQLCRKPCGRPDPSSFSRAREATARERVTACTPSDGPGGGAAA
T3 sequence (P34975 whole entry): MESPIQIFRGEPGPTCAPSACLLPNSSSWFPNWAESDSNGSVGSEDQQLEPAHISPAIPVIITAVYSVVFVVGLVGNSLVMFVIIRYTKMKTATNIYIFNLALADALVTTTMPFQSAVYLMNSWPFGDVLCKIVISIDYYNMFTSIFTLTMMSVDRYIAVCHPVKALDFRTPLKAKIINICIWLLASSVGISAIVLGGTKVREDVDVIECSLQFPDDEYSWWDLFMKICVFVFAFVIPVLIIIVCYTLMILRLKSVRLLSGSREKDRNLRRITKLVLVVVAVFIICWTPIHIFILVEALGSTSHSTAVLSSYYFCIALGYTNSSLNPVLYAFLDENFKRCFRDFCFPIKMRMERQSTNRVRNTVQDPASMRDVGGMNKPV
T5 sequence (P33535 whole entry): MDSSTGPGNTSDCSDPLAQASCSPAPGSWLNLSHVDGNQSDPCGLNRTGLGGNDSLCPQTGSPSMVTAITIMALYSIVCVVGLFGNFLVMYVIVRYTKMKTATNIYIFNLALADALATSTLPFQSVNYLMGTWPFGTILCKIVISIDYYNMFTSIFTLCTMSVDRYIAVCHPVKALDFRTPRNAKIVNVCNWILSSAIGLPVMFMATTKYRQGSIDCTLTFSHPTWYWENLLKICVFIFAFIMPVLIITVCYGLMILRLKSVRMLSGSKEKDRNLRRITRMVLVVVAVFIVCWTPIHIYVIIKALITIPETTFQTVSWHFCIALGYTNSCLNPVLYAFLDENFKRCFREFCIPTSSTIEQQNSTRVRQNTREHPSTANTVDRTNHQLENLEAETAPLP

SMILES	Emax [1]	EC50 [1]	EC50 [2]	KOR Binding, exploratory binding assay [3]	EC50 [4]	Emax [4]	Ki [5]	Bias Factor [6]	EC50 [6]	Emax [6]	DOR Binding, exploratory binding assay ([7]; radioligand displacement at 100 nM)	Ki [7]	EC50 δ/μ ratio in the cAMP assay [1]	Emax [2]
O=C1CCC2C3Cc4ccc(O)c5c4[C@@]2(CCN3CC=Cc2ccccc2)[C@H]1O5 (stereo partly drawn) [Compound 1c, (7aR,12bS)-3-Cinnamyl-9-hydroxy-2,3,4,4a,5,6-hexahydro-1H-4,12-methanobenzofuro[3,2-e]isoquinolin-7(7aH)-one]	96.5%	1700 nM	> 10000 nM	NT (NT = not tested—inactive (<50% activity at 100 nM concentration in exploratory binding assays (displaced less than half of radioligand))	76.7 nM	103%	90.5 ± 11 nM	1.35	584 nM	4.1%	NT (NT = not tested—inactive (<50% activity at 100 nM concentration in exploratory binding assays (displaced less than half of radioligand))	–	–	–
O=C1CCC2C3Cc4ccc(O)c5c4[C@@]2(CCN3CC2Cc3ccccc3C2)[C@H]1O5 (stereo partly drawn) [Compound 1d, (7aR,12bS)-3-((2,3-Dihydro-1H-inden-2-yl)methyl)-9-hydroxy-2,3,4,4a,5,6-hexahydro-1H-4,12-methano-benzofuro[3,2-e]isoquinolin-7(7aH)-one]	94.4%	596 nM	> 10000 nM	NT (NT = not tested—inactive (<50% activity at 100 nM concentration in exploratory binding assays (displaced less than half of radioligand))	18.3 nM	95.2%	40.1 ± 5.9 nM	2.53	130 nM	1.9%	–	844 ± 107 nM	–	–
O=C(O)C(=O)O.O=C1CCC2[C@H]3Cc4ccc(O)c5c4[C@@]2(CCN3CCc2ccc(Br)cc2)[C@H]1O5 (stereo partly drawn) [Compound 2j, (4R,7aR,12bS)-3-(4-Bromophenethyl)-9-hydroxy-2,3,4,4a,5,6-hexahydro-1H-4,12-methanobenzofuro[3,2-e]-isoquinolin-7(7aH)-one oxalate]	96%	0.97 nM	20 nM and 20.1 nM	–	0.15 nM	103%	–	0.43	4.9 nM	53%	–	–	6.5	99%
O=C1CCC2C3Cc4ccc(O)c5c4[C@@]2(CCN3CCc2c(Cl)cccc2Cl)[C@H]1O5 (stereo partly drawn) [Compound 2k, (7aR,12bS)-3-(2,6-Dichlorophenethyl)-9-hydroxy-2,3,4,4a,5,6-hexahydro-1H-4,12-methanobenzofuro[3,2-e]isoquinolin-7(7aH)-one]	95.8%	21.9 nM	1880 nM	–	0.37 nM	101%	–	1.04	13.1 nM	24.6%	–	–	–	74%
O=C1CCC2C3Cc4ccc(O)c5c4C2(CCN3CCc2ccccc2)C1O5 (stereo not shown) [Compound S11, N-Phenethylnorhydromorphone]	95.1%	1.54 nM	23 nM and 22.7 nM	–	0.04 nM	102%	–	0.47	1.71 nM	61.9%	–	–	38.5 and 39	80.6%
C[C@@H](NC(=O)[C@@H](N)Cc1ccc(O)cc1)C(=O)NCC(=O)N(C)[C@@H](Cc1ccccc1)C(=O)NCCO [DAMGO, [D-Ala^2, N-MePhe^4, Gly-ol]-enkephalin, reference compound]	–	–	–	–	–	102%	–	–	–	–	–	–	–	–
